In patent publication US20120076757A1, “COMPOSITION FOR TRANSMUCOSAL DELIVERY OF POLYPEPTIDES” (Cephalon, Inc., priority 2007, published 2012):

What was measured:
[1] = test system: cultured human buccal carcinoma cells (SqCC/Y1 cells)
Description: (§1) In vitro permeability testing was conducted as follows. Starting with acrylic inserts having one end sealed with 0.6 cm square area inserts of acrylic and polycarbonate membranes without cells, the cultured human buccal carcinoma cells (SqCC/Y1 cells) were grown on the membrane surface in culture medium for a period of 24 hours. The culture medium was removed from the top of the insert (“air-lifting” process), wherein the cells continued to receive nutrients from the culture medium beneath the inserts. Under these conditions, the cells were grown for a period of 7 to 10 days so as to grow the cells to multilayer confluence on the polycarbonate membrane, thereby increasing cellular density to a multi-layer, tissue-like barrier resembling that of buccal mucosal tissue.
(§2) The assay was performed by rinsing the inserts with Krebs-Ringer buffer solution without sodium bicarbonate (KRB) and inspecting for uniformity by measuring the transepithelial electrical resistance (TEER). When the average electrical resistance necessary was 350 ohms or greater, the inserts were selected for permeability testing, thereby ensuring consistent permeability barrier thickness and distribution.
(§3) The inserts were separated into the groups (e.g., n=3) with closely similar average TEER values (of the group) to be used in testing particular formulations of active pharmaceutical ingredients (i.e., polypeptide). For a given bile salt, for example, the sample groups were as follows: • 1) polypeptide alone; • 2) polypeptide in combination with bile salt; • 3) polypeptide in combination with effervescent excipient composition (Excipient Formula 1) powder; • 4) polypeptide in combination with bile salt (varying concentrations) and effervescent excipient composition (Excipient Formula 1) powder.
(§4) The inserts were placed into cell culture wells with a defined volume of KRB and incubated at 37° C. on shaker tables set at 100 rpm. Thus, the cells were exposed to the given active ingredient (polypeptide) without and in combination with the various excipient formulations described.
(§5) Samples were removed from the basolateral fluid every 10 minutes for a period of one hour, and the removed fluid was replaced with an equal volume of KRB. At the end of the hour, the residual fluid within the insert was recovered and stored, the insert was rinsed with KRB, and the TEER value again measured. The TEER differences between the starting step TEER and final step TEER were recorded.
(§6) The samples from the basolateral wells were analyzed for the active ingredient (polypeptide) using various techniques. The amount of active in the well was calculated and corrected for sampling loss.
(§7) Enhancement Ratio (ER) is equal to the ratio of the Papp with absorption enhancer divided by the Papp without absorption enhancer. Thus, this technique was used for each of the proposed permeability enhancement compositions below.
(§8) The permeability of fluorescently-labeled polypeptide with and without enhancement was measured by the in vitro permeability assay. The amount of polypeptide permeating through the cells/tissue into the basolateral fluid was measured and the apparent permeability coefficient (Papp) for each polypeptide sample was calculated.

[2] = Anaesthetized dog model, desmopressin oral transmucosal (buccal) permeation, serum by LC/MS/MS; type: in vivo
Excerpt: Anesthetized dog models were used to evaluate transmucosal permeation of polypeptide compositions prepared in accordance with the invention. Mature mongrel large-breed (15-35 kg) dogs were screened for medical conditions to qualify. For testing, the dogs were anaesthetized, placed on their right or left side, and cannulated via the cephalic vein. A Teflon ring was attached to the buccal mucosa in a horizontal position to form a reservoir. Biologically active polypeptides to be evaluated were deposited, with or without enhancer components, onto the buccal mucosa surrounded by the ring. Depending upon the experiment, active polypeptides were deposited in the form of solution, dry powder or solid dosage form (tablet). Blood samples were taken every 10 minutes for a period of 2 hours, with additional samples taken up to 4 hours depending upon the protocol. The active-containing compositions were removed from the reservoir at 60 minutes and the reservoir rinsed twice.
At 2 hours, the dog is removed from anesthesia and the ring is removed from its buccal mucosa. Following recovery from anesthesia, subsequent blood samples are taken from the awake dogs. Blood samples are allowed to clot, the serum is separated by centrifugation, and the serum is frozen at −20° or −80° C., depending upon the protocol until analyzed for the active polypeptide content.
Desmopressin (deamino-Cysl-D-Arg Vasopressin, or D-Arg Vasopresin) was tested for buccal permeation into the blood stream by various administration forms: solution, powder, and compressed tablet.
Desmopressin-containing tablets for the experiment were prepared by combining 200 mg of effervescent formulation described in Example 1A (EF 1) with 20 mg sodium taurocholate. This mixture was added directly into a vial of lyophilized desmopressin. […]
Tablets prepared accordingly were tested in dogs per protocol described above. […] Desmopres sin was measured using LC/MS/MS analysis o the serum samples.

[3] = test system: cultured human buccal carcinoma cells (SqCC/Y1 cells); assay: In vitro permeability assay (apparent permeability coefficient Papp across multilayer buccal cell culture); conditions: ELISA
Description: as §1, §2, §3, §4, §5, §6, §7, §8

[4] = Anaesthetized dog model, salmon calcitonin oral transmucosal permeation from effervescent tablets; type: in vivo; conditions: adding 2.5% NaTC or more to the effervescent formulation
Excerpt: Anesthetized dog models were used to evaluate transmucosal permeation of polypeptide compositions prepared in accordance with the invention. Mature mongrel large-breed (15-35 kg) dogs were screened for medical conditions to qualify. For testing, the dogs were anaesthetized, placed on their right or left side, and cannulated via the cephalic vein. A Teflon ring was attached to the buccal mucosa in a horizontal position to form a reservoir. Biologically active polypeptides to be evaluated were deposited, with or without enhancer components, onto the buccal mucosa surrounded by the ring. Depending upon the experiment, active polypeptides were deposited in the form of solution, dry powder or solid dosage form (tablet). […]
At 2 hours, the dog is removed from anesthesia and the ring is removed from its buccal mucosa. […] Blood samples are allowed to clot, the serum is separated by centrifugation, and the serum is frozen at −20° or −80° C., depending upon the protocol until analyzed for the active polypeptide content.
Salmon calcitonin (s-Ct) was tested for buccal permeation into the blood stream of anesthetized dogs with effervescent compressed tablets containing s-Ct and the bile salt (sodium taurocholate) at 0%, 2.5%, 5.0%, and 10% bile salt. […] The following table contains the formulation information of the tablets evaluated. […]

[5] = INTRON A acquired from Schering Corp.; cited from earlier work
[6] = with bile salt (sodium taurocholate) alone

## NC(=O)CC[C@@H]1NC(=O)[C@H](Cc2ccccc2)NC(=O)[C@H](Cc2ccc(O)cc2)NC(=O)CCSSC[C@@H](C(=O)N2CCC[C@H]2C(=O)N[C@H](CCCN=C(N)N)C(=O)NCC(N)=O)NC(=O)[C@H](CC(N)=O)NC1=O [Desmopressin, deamino-Cysl-D-Arg Vasopressin]
[1]
  in vitro permeation of desmopressin across mucosal tissue (Papp): does not appear to appreciably increase polypeptide permeation
  in vitro transport/permeability of desmopressin across mucosal tissue (Papp): appears to exhibit appreciable enhancement
[2]; desmopressin in combination with the bile salt alone
  permeation of the polypeptide across the mucosal tissue in the in vivo model: does not appear to appreciably increase the permeation
[2]; desmopressin with combination of bile salt and effervescent formulation
  transport/permeation of the polypeptide across the mucosal tissue in the in vivo model: appears to appreciably enhance
[2]; desmopressin with the effervescent formulations alone
  permeation of the polypeptide across the mucosal tissue in the in vivo model: does not appear to appreciably increase the permeation

## CC(C)C[C@H](NC(=O)[C@H](CCCCN)NC(=O)CNC(=O)[C@H](CC(C)C)NC(=O)[C@@H](NC(=O)[C@@H]1CSSC[C@H](N)C(=O)N[C@@H](CO)C(=O)N[C@@H](CC(N)=O)C(=O)N[C@@H](CC(C)C)C(=O)N[C@@H](CO)C(=O)N[C@@H]([C@@H](C)O)C(=O)N1)C(C)C)C(=O)N[C@@H](CO)C(=O)N[C@@H](CCC(N)=O)C(=O)N[C@@H](CCC(=O)O)C(=O)N[C@@H](CC(C)C)C(=O)N[C@@H](Cc1c[nH]cn1)C(=O)N[C@@H](CCCCN)C(=O)N[C@@H](CC(C)C)C(=O)N[C@@H](CCC(N)=O)C(=O)N[C@H](C(=O)N[C@@H](Cc1ccc(O)cc1)C(=O)N1CCC[C@H]1C(=O)N[C@@H](CCCNC(=N)N)C(=O)N[C@H](C(=O)N[C@@H](CC(N)=O)C(=O)N[C@H](C(=O)NCC(=O)N[C@@H](CO)C(=O)NCC(=O)N[C@H](C(=O)N1CCC[C@H]1C(N)=O)[C@@H](C)O)[C@@H](C)O)[C@@H](C)O)[C@@H](C)O [s-CT]
[3]; s-CT + taurocholate + EF 2
  permeation result of combination compared with individual effects: greater than the sum of the individual permeation effects
[3]; with EF 2 alone
  in vitro permeation of s-CT across mucosal tissue (Papp): does not appear to exhibit an increase in permeation
[3]; [6]
  in vitro permeation of s-CT across mucosal tissue (Papp): does not appear to exhibit an increase in permeation
[3]; with effervescent formulation (EF 2) and 1% or 2% bile salt
  in vitro permeation/transport of s-CT across mucosal tissue (Papp): does appear to exhibit appreciably enhanced permeation/transport
[4]
  transmucosal permeability of s-Ct in anesthetized dogs: large improvement in permeability

## IFNα
[5]
  specific activity: 260 million IU per mg protein
[3]; IFNα + taurocholate + EF 1
  permeation result of combination compared with individual effects: greater than the sum of the individual permeation effects
[3]; with 1% or 2% bile salt and effervescent composition (EF 1)
  in vitro permeation of IFNα across mucosal tissue (Papp): does appears to produce appreciable enhancement
[3]; with EF 1 alone
  in vitro permeation of IFNα across mucosal tissue (Papp): does not appear to appreciably increase the permeation
[3]; with bile salt alone
  in vitro permeation of IFNα across mucosal tissue (Papp): does not appear to appreciably increase the permeation

## IGF-1: Insulin-like Growth Factor-1, 70 amino acids with 3 internal disulfide bonds
[3]; IGF-1 + taurocholate + EF2
  permeation result of combination compared with individual effects: greater than the sum of the individual permeation effects
[3]; with EF 2 alone
  in vitro permeation of IGF-1 across mucosal tissue (Papp): does not appear to exhibit an increase in permeation
[3]; with EF2 and 1% bile salt
  in vitro permeation/transport of IGF-1 across mucosal tissue (Papp): appears to exhibit enhanced permeation/transport
[3]; [6]
  in vitro permeation of IGF-1 across mucosal tissue (Papp): does not appear to exhibit an increase in permeation
